Results reported in patent US7022719B2, “Preventing and reversing the formation of advance glycosylation endproducts” (Alteon, Inc., priority 1995, dated 2006).
Like-named read-outs stand apart in the source and are kept apart here.

Legend:
[1] = test system: AGE-BSA crosslinked to collagen; test: Cross-link Breaking Assay (sandwich enzyme immunoassay); assay type: biochemical
Description: The present invention also involves a novel sandwich enzyme immunoassay used to ascertain the ability of test compounds to “break” or reverse already formed advanced glycosylation endproducts by detecting the breaking of AGE (Advanced glycosylation endproduct) moieties from AGE-crosslinked protein. This assay comprises: • a) incubation of AGE-modified bovine serum albumin (AGE BSA) on collagen-coated wells of microtiter plates for a period of 2–6 hours' at a temperature of 37° C.; • b) washing of the wells with PBS-Tween; • c) application of the test compounds to the washed wells of step b; • d) incubation of the test compounds applied to the washed wells for an additional 12–24 hours at a temperature of about 37° C.; and • e) detection of the AGE-breaking using an antibody raised against AGE-ribonuclease or cross-link breaking with an antibody against BSA.
In order to ascertain the ability of the compounds of the instant invention to “break” or reverse already formed advanced glycosylation endproducts, a novel sandwich enzyme immunoassay was developed which detects breaking of AGE (Advanced glycosylation endproduct) moieties from AGE-crosslinked protein. The assay utilizes collagen-coated 96 well microtiter plates that are obtained commercially. […] Following an incubation period of 16 hours (37° C.) cross-link-breaking is detected using an antibody raised against AGE-ribonuclease or with an antibody against BSA. […] Details of the assay are as follows:
Methods Preparation of Solutions and Buffers • 1. AGE-BSA stock solutions were prepared as follows. Sodium phosphate buffer (0.4 M) was prepared by dissolving 6 grams of monobasic sodium phosphate in 100 ml of distilled water, 7 grams of dibasic sodium phosphate (0.4 M) in 100 ml of distilled water and adjusting the pH of the dibasic solution to 7.4 with the monobasic solution. Sodium azide (0.02 grams) was added per 100 ml volume to inhibit bacterial growth. The BSA solution was prepared as follows: 400 mg of Type V BSA (bovine serum albumin) was added for each ml of sodium phosphate buffer (above). A 400 mM glucose solution was prepared by dissolving 7.2 grams of dextrose in 100 ml of sodium phosphate buffer (above). The BSA and glucose solutions were mixed 1:1 and incubated at 37° C. for 12 weeks. The pH of the incubation mixture was monitored weekly and adjusted to pH 7.4 if necessary. After 12 weeks, the AGE-BSA solution was dialyzed against PBS for 48 hours with four buffer changes, each at a 1:500 ratio of solution to dialysis buffer. Protein concentration was determined by the micro-Lowry method. The AGE-BSA stock solution was aliquoted and stored at −20° C. […] Working solutions for crosslinking and breaking studies were prepared as follows. Test compounds were dissolved in PBS and the pH was adjusted to pH 7.4 if necessary. AGE-BSA stock solution was diluted in PBS to measure maximum crosslinking and in the inhibitor solution for testing inhibitory activity of compounds. The concentration of AGE-BSA necessary to achieve the optimum sensitivity was determined by initial titration of each lot of AGE-BSA. • 3. Wash buffer (“PBS-Tween”) was, prepared as follows. PBS was prepared by dissolving the following salts in one liter of distilled water: NaCl, 8 grams; KC1, 0.2 gram, KH2PO4. […] Tween-20 was added to a final concentration of 0.05% (vol/vol). • 4. Substrates for detection of secondary antibody binding were prepared by diluting the HRP substrate buffer 1:10 in distilled water and mixing with ABTS chromogen 1:50 just prior to use. Assay Procedures • 1. Biocoat plates were blocked with 300 μl of “Superbloc”. Plates were blocked for one hour at room temperature and were washed with PBS-Tween three times with the Dynatech platewasher before addition of test reagents. • 2. Each experiment was set up in the following manner. The first three wells of the Biocoat plate were used for the reagent blank.

[2] = test system: cross-linking of glycated bovine serum albumin (AGE-BSA) to rat tail tendon collagen; test: Cross-linking Inhibition Assay; settings: for IC50: inhibition of AGE-BSA cross-linking to collagen-coated plate
Description: The following method was used to evaluate the ability of the compounds of the present invention to inhibit the cross-linking of glycated bovine serum albumin (AGE-BSA) to the rat tail tendon collagen-coated 96-well plate.
The blocking solution was removed from the wells by, washing the plate twice with PBS-'Tween 20 solution (0.05% Tween 20) using a NUNq-multiprobe or Dynatech ELISA-plate washer. Cross-linking of AGE-BSA (1 to 10 mg per well depending on the batch of AGE-BSA) to rat tail tendon collagen coated plate was performed with and without the testing ‘compound dissolved in PBS buffer at pH 7.4 at the desired concentrations by the, addition of 50 μl each of the AGE-BSA diluted in PBS or in the solution of test compound at 37° C. for 4 hours. Unbrowned BSA in PBS buffer with or without testing compound were added to the separate wells as the blanks. The un-cross-linked AGE-BSA was then removed by washing the wells three times with PBS-Tween buffer. The amount of AGE-BSA cross-linked to the tail tendon collagen-coated plate was then quantitated using a polyclonal antibody raised against AGE-RNase. After a one-hour incubation period, AGE antibody was removed by washing 4 times with PBS-Tween.
The bound AGE antibody was then detected with the addition of horseradish peroxidase-conjugated secondary antibody—goat anti-rabbit immunoglobulin and incubation for 30 minutes. […] The reaction was allowed for an additional 15 minutes and the absorbance was read at 410 nm in a Dynatech plate reader.

[3] = anti-AGE antibody, concentration not given
[4] = anti-BSA antibody, concentration not given
[5] = detection with anti-AGE antibody, read-out: IC50 (mM) Anti-AGE
[6] = detection with anti-BSA antibody, read-out: IC50 (mM) Anti-BSA

`CCOC(=O)c1ccc(NC(=O)C[n+]2csc(CCO)c2C)cc1.[Br-]` [3-(2-4′-carbethoxyanilino)-2-oxoethyl]-4-methyl-5-(2′-hydroxyethyl)-thiazolium bromide] was tested, and the “Breaking Anti-AGE” value ([1]; anti-AGE antibody, at 10 mM) was 48%, the “Breaking Anti-BSA” value ([1]; anti-BSA antibody, at 10 mM) was 57% and the “Relative Cross-link Inhibition” value [2] was 8.8% (1 mm).
With `Cc1c[n+](CC(N)=O)cs1` [3-(2-amino-2-oxoethyl)-5-methyl-thiazolium bromide] the IC50 [2] was 28.9 µM.
`COc1ccc(C(=O)C[n+]2c(N)sc3cc(N)ccc32)cc1.[Br-]` [2,6-diamino-3 (2-(4′-methoxyphenyl)-2-oxoethyl]benzothiazolium bromide] was tested, and the “Breaking Anti-AGE” value ([1]; anti-AGE antibody, at 10 mM) was 29% and the “Breaking Anti-BSA” value ([1]; anti-BSA antibody, at 10 mM) was 35%.
`NC(=O)C[n+]1csc2ccccc21.[Br-]` [3-(2-amino-2-oxoethyl)-benzothiazolium bromide] was tested, and the “Breaking Anti-AGE” value [1, 3] was 77%, the “Breaking Anti-BSA” value [1, 4] was 65% and the IC50 [1, 5] was 0.4 mM. For the same molecule, the IC50 [1, 6] was 0.52 mM and the IC50 [2] was 20 µM.
With `Cc1csc[n+]1CC(=O)c1cc(C(C)(C)C)c(O)c(C(C)(C)C)c1.[Br-]` [3-[2-(3′,5′-di-tert-butyl-4′-hydroxyphenyl)-2-oxoethyl]-4-methyl-thiazolium bromide] the “Breaking Anti-AGE” value ([1]; anti-AGE antibody, at 0.3 mM) was 14% and the “Breaking Anti-BSA” value ([1]; anti-BSA antibody, at 0.3 mM) was 2%.
For `COC(=O)C[n+]1ccsc1.[Br-]` [3-(2-Methoxy-2-oxoethyl)-thiazolium bromide], the “Breaking Anti-AGE” value ([1]; anti-AGE antibody, at 30 mM) was 38%, the “Breaking Anti-BSA” value ([1]; anti-BSA antibody, at 30 mM) was 41% and the IC50 [2] was 250 µM.
For `COC(=O)C[n+]1csc(C)c1.[Br-]` [3-(2-methoxy-2-oxoethyl)-5-methyl-thiazolium bromide], the “Breaking Anti-AGE” value ([1]; anti-AGE antibody, at 30 mM) was 72%, the “Breaking Anti-BSA” value ([1]; anti-BSA antibody, at 30 mM) was 27% and the IC50 [2] was 3200 µM.
In the case of `Cc1c(CCO)sc[n+]1CC(=O)Nc1c(C(C)C)cccc1C(C)C.[Br-]` [3-(2-(2′,6′-Diisopropylanilino)-2-oxoethyl]-4-methyl-5-(2′-hydroxyethyl)-thiazolium bromide], the “Breaking Anti-AGE” value ([1]; anti-AGE antibody, at 10 mM) is reported as 31%, the “Breaking Anti-BSA” value ([1]; anti-BSA antibody, at 10 mM) is reported as 48% and the “Relative Cross-link Inhibition (at 10 mM)” value ([2]; at 10 mM) is reported as 19%.
For `Cc1c(CCO)sc[n+]1CC(N)=O.[Br-]` [3-(2-amino-2-oxoethyl)-4-methyl-5-(2-hydroxyethyl) thiazolium bromide], the “Breaking Anti-AGE” value [1, 3] was 65%, the “Breaking Anti-BSA” value [1, 4] was 57% and the IC50 [1, 5] was 0.012 mM. For the same molecule, the IC50 [1, 6] was 0.12 mM and the IC50 [2] was 1420 µM.
In the case of `CC(=O)C[n+]1ccsc1.[Cl-]` [3-(2-methyl-2-oxoethyl) thiazolium chloride], the “Breaking Anti-AGE” value [1, 3] is reported as 56%, the “Breaking Anti-BSA” value [1, 4] is reported as 93% and the IC50 [1, 5] is reported as 0.83 mM. The IC50 [1, 6] was 0.75 mM.
With `O=C(C[n+]1ccsc1)c1ccc(Br)cc1.[Br-]` [3-(2-(4^1-bromophenyl]-2-oxoethyl)-thiazolium bromide] the “Breaking Anti-AGE” value ([1]; anti-AGE antibody, at 30 mM) was 76% and the “Breaking Anti-BSA” value ([1]; anti-BSA antibody, at 30 mM) was 25%.
`Cc1sc[n+](CC(=O)c2cc(C(C)(C)C)c(O)c(C(C)(C)C)c2)c1C` [3-(2-(3′,5′-di-tert-butyl-4′-hydroxypheny].)-2-oxoethyl]-4,5-dimethyl-thiazolium bromide] was tested, and the IC50 [2] was 160 µM.
With `Cc1c(CCO)sc[n+]1Cc1ccccc1.[Cl-]` [3-benzyl-5-(2-hydroxyethyl)-4-methyl thiazolium chloride] the “Breaking Anti-AGE” value ([1]; anti-AGE antibody, at 30 mM) was 65%, the “Breaking Anti-BSA” value ([1]; anti-BSA antibody, at 30 mM) was 61% and the IC50 [1, 5] was 0.42 mM. It also gave an IC50 [1, 6] of 0.55 mM.
For `O=C(O)C[n+]1csc2ccccc21.[Br-]` [3-(carboxymethyl)benzothiazolium bromide, 3-(carboxymethyl)-benzothiazolium bromide], the “Breaking Anti-AGE” value ([1]; anti-AGE antibody, at 30 mM) was 63.7% and the “Breaking Anti-BSA” value ([1]; anti-BSA antibody, at 30 mM) was 17.9%.
`C=Cc1sc[n+](CC(=O)c2cc(C(C)(C)C)c(O)c(C(C)(C)C)c2)c1C` [3-(2-(3′,5′-tert-butyl-4′-hydroxyphenyl)-2-oxoethyl)-4-methyl-5-vinyl-thiazolium bromide] was tested, and the “Breaking Anti-AGE” value ([1]; anti-AGE antibody, at 0.3 mM) was 32% and the “Breaking Anti-BSA” value ([1]; anti-BSA antibody, at 0.3 mM) was 50%.
In the case of `O=C(C[n+]1ccsc1)c1ccc2c(c1)OCCCO2.[Br-]` [3-(2-(3′,4′-trimethylenedioxyphenyl)-2-oxoethyl]-thiazolium bromide], the “Breaking Anti-AGE” value ([1]; anti-AGE antibody, at 10 mM) is reported as 17% and the “Breaking Anti-BSA” value ([1]; anti-BSA antibody, at 10 mM) is reported as 18%.
In the case of `Cc1c(CCO)sc[n+]1CC(=O)c1ccc(Br)cc1` [3-(2-(41-bromophenyl]-2-oxoethyl)-4-methyl-5-(2-hydroxyethyl)thiazolium bromide], the IC50 [2] is reported as 2950 µM.
`CCN(CC)c1ccc(C(=O)C[n+]2csc(CCO)c2C)cc1` [3-(2-4′-diethylaminophenyl)-2-oxoethyl]-4-qj. methyl-5-(2′-hydroxyethyl)-thiazolinium bromide] showed an IC50 [2] of 2800 µM.
With `Nc1ccc2c(c1)sc(N)[n+]2CC(=O)c1ccc(Br)cc1.[Br-]` [2,6-diamino-3 (2-(4′-bromophenyl)-2-oxoethyl] benzothiazolium bromide] the “Breaking Anti-AGE” value ([1]; anti-AGE antibody, at 10 mM) was 27% and the “Breaking Anti-BSA” value ([1]; anti-BSA antibody, at 10 mM) was 44%.
With `COC(=O)C[n+]1cscc1C.[Br-]` [3-(2-methoxy-2-oxoethyl)-4-methylthiazolium bromide] the “Breaking Anti-AGE” value ([1]; anti-AGE antibody, at 30 mM) was 54% and the “Breaking Anti-BSA” value ([1]; anti-BSA antibody, at 30 mM) was 51%.
In the case of `Cc1cc(C)c(S(=O)(=O)[O-])c(C)c1.Nc1sc(-c2ccc3c(c2)OCCCO3)c[n+]1N` [2,3-Diamino-5-(3′,4′-trimethylenedioxyphenyl) thiazolium mesitylene sulfonate], the “Breaking Anti-AGE” value ([1]; anti-AGE antibody, at 1 mM) is reported as 13% and the “Breaking Anti-BSA” value ([1]; anti-BSA antibody, at 1 mM) is reported as 42%.
`Cc1sc[n+](CC(=O)c2ccc(Br)cc2)c1C` [3-(2-(4-bromophenyl]-2-oxoethyl)-4,5-dimethylthiazolium bromide] showed an IC50 [2] of 2920 µM.
In the case of `Cc1c(CCO)sc[n+]1Cc1c(Cl)cccc1Cl.[Cl-]` [3-(2′,6′-dichlorobenzyl)-4-methyl-5-(2′-15 hydroxyethyl)-thiazolium chloride], the “Breaking Anti-AGE” value ([1]; anti-AGE antibody, at 10 mM) is reported as 6% and the “Breaking Anti-BSA” value ([1]; anti-BSA antibody, at 10 mM) is reported as 27%.
Molecule `Cc1c[n+](CC(=O)c2ccccc2)cs1` [3-(2-phenyl-2-oxoethyl)-5-methyl-thiazolium bromide] has an IC50 [2] of 12600 µM.
For `NC(=O)C[n+]1ccsc1` [3-(2-amino-2-oxoethyl)thiazolium bromide, 3-(2-amino-2-oxoethyl)-thiazolium bromide], the IC50 [2] was 530 µM.
In the case of `Nc1ccc2c(c1)sc(N)[n+]2CC(=O)c1ccc(F)cc1.[Br-]` [2,6-diamino-3 (2-(4′-fluorophenyl-2-oxoethyl]benzothiazolium bromide], the “Breaking Anti-AGE” value ([1]; anti-AGE antibody, at 10 mM) is reported as 24% and the “Breaking Anti-BSA” value ([1]; anti-BSA antibody, at 10 mM) is reported as 40%.
With “3-(2-(3′-methoxyphenyl]-2-oxoethyl)-thiazolium bromide” the “Breaking Anti-AGE” value [1] was 22%/44% (10) and the “Breaking Anti-BSA” value [1] was 22%/44% (10).
In the case of `CCCCCc1ccc(C(=O)C[n+]2csc(CCO)c2C)cc1.[Br-]` [3-(2-(4′-n-pentylphenyl)-2-oxoethyl]-4-methyl-5-(2′-hydroxyethyl)-thiazolinium], the “Relative Cross-link Inhibition” value ([2]; 3 mM) is reported as 52% @ 3 mM and the IC50 [2] is reported as 1530 µM.
